42 molecules from ChEMBL document CHEMBL4742400, “Protein kinase mkk4 inhibitors for promoting liver regeneration or reducing or preventing hepatocyte death” (2019) can be followed below.

The species entered for experiment [1] is Homo sapiens. The experiment is described as follows: Selectivity index, ratio of inhibition of full length human JNK1 (M1 to Q384 residues) expressed in mammalian expression system assessed as residual percent of control binding at 100 nM relative to control to inhibition of partial length human MKK4 (S84 to D399 residues) expressed in mammalian expression system assessed as residual percent of control binding at 100 nM relative to control.

The species entered for experiment [2] is Homo sapiens. The experiment in a line: Selectivity index, ratio of inhibition of full length human MKK7 (M1 to R419 residues) expressed in mammalian expression system assessed as residual percent of control binding at 100 nM relative to control to inhibition of partial length human MKK4 (S84 to D399 residues) expressed in mammalian expression system assessed as residual percent of control binding at 100 nM relative to control.

The species named for experiment [3] is Homo sapiens. The experiment is described as follows: Selectivity index, ratio of inhibition of B-raf (unknown origin) to inhibition of partial length human MKK4 (S84 to D399 residues) expressed in mammalian expression system assessed as residual percent of control binding at 100 nM relative to control.

For the molecule `CCCS(=O)(=O)Nc1ccc(F)c(C(=O)c2n[nH]c3ncc(-c4ccc(S(C)(=O)=O)cc4)cc23)c1F`, the figures for the Selectivity ratio in the experiment filed under Homo sapiens [1], in the experiment filed under Homo sapiens [2] and in the experiment filed under Homo sapiens [3] were above 30, above 30 and below 3, respectively.

With `CCCS(=O)(=O)Nc1ccc(F)c(Sc2n[nH]c3ncc(-c4ccc(Cl)cc4)cc23)c1F`, the Selectivity ratio in the experiment filed under Homo sapiens [1], in the experiment listed under Homo sapiens [2] and in the experiment listed under Homo sapiens [3] was below 3 in each case.

As for `CCCS(=O)(=O)Nc1c(F)ccc(C(=O)c2n[nH]c3ncc(-c4ccc(C(=O)O)cc4)cc23)c1F`, the Selectivity ratio in the experiment listed under Homo sapiens [1], in the experiment filed under Homo sapiens [2] and in the experiment filed under Homo sapiens [3] was above 30 each time.

Take `CCCS(=O)(=O)Nc1ccc(F)c(C(=O)c2n[nH]c3ncc(-c4ccc(S(=O)(=O)NC(C)=O)cc4)cc23)c1F`: the Selectivity ratio in the experiment filed under Homo sapiens [1] is above 30; in the experiment filed under Homo sapiens [2], above 30; in the experiment listed under Homo sapiens [3] it was below 3.

Turning to `CCCS(=O)(=O)Nc1ccc(F)c(C(=O)c2n[nH]c3ncc(-c4ccc(N)cc4)cc23)c1F`, the Selectivity ratio in the experiment listed under Homo sapiens [1] is above 30; in the experiment filed under Homo sapiens [2], above 30; in the experiment filed under Homo sapiens [3], 10.

For the molecule `CCCS(=O)(=O)Nc1ccc(F)c(S(=O)(=O)c2n[nH]c3ncc(-c4ccc(Cl)cc4)cc23)c1F`, the Selectivity ratio in the experiment listed under Homo sapiens [1], in the experiment filed under Homo sapiens [2] and in the experiment listed under Homo sapiens [3] was below 3 throughout.

Take `CCCS(=O)(=O)Nc1ccc(F)c(C(=O)c2n[nH]c3ncc(-c4cccc(N(C)C)c4)cc23)c1F`: the Selectivity ratio in the experiment filed under Homo sapiens [1] is 3; in the experiment listed under Homo sapiens [2] it was 3; in the experiment filed under Homo sapiens [3] it was below 3.

Turning to `CCCS(=O)(=O)Nc1ccc(F)c(C(=O)c2n[nH]c3ncc(-c4ccc(C(N)=O)cc4)cc23)c1F`, the Selectivity ratio in the experiment listed under Homo sapiens [1] was above 30; in the experiment listed under Homo sapiens [2], above 30; in the experiment listed under Homo sapiens [3], 3.

For the molecule `CCCS(=O)(=O)Nc1ccc(F)c(C(=O)c2n[nH]c3ncc(-c4ccc(Cl)c(Cl)c4)cc23)c1F`, the Selectivity ratio is 10 in the experiment listed under Homo sapiens [1], below 3 in the experiment filed under Homo sapiens [2] and below 3 in the experiment listed under Homo sapiens [3].

As to `CCCS(=O)(=O)Nc1ccc(F)c(C(=O)c2n[nH]c3ncc(-c4cc(Cl)cc(Cl)c4)cc23)c1F`, the Selectivity ratio in the experiment filed under Homo sapiens [1], in the experiment filed under Homo sapiens [2] and in the experiment listed under Homo sapiens [3] was below 3 in each case.

On to `CCCS(=O)(=O)Nc1ccc(F)c(C(=O)c2n[nH]c3ncc(-c4ccccc4)cc23)c1F`, for which the Selectivity ratio in the experiment listed under Homo sapiens [1] is 10; in the experiment filed under Homo sapiens [2], above 30; in the experiment listed under Homo sapiens [3], 10.

On to `CCCCS(=O)(=O)Nc1cccc(C(=O)c2n[nH]c3ncc(-c4ccc5c(c4)OCCO5)cc23)c1F`, for which the Selectivity ratio in the experiment filed under Homo sapiens [1] is below 3; in the experiment listed under Homo sapiens [2], 3; in the experiment filed under Homo sapiens [3], 3.

`CCCS(=O)(=O)Nc1ccc(F)c(C(=O)c2n[nH]c3ncc(-c4cccc(Cl)c4)cc23)c1F`: the Selectivity ratio in the experiment listed under Homo sapiens [1], in the experiment filed under Homo sapiens [2] and in the experiment filed under Homo sapiens [3] was below 3 throughout.

In the case of `CCCS(=O)(=O)Nc1ccc(F)c(C(=O)c2n[nH]c3ncc(-c4ccc(-c5nnn[nH]5)cc4)cc23)c1F`, the figures for the Selectivity ratio in the experiment listed under Homo sapiens [1], in the experiment listed under Homo sapiens [2] and in the experiment listed under Homo sapiens [3] were above 30, above 30 and 3, respectively.

On to `CCCS(=O)(=O)Nc1ccc(F)c(C(=O)c2n[nH]c3ncc(-c4ccc(C(C)(C)C)cc4)cc23)c1F`, for which the Selectivity ratio in the experiment listed under Homo sapiens [1], in the experiment filed under Homo sapiens [2] and in the experiment filed under Homo sapiens [3] was below 3 in each case.

For `CCCS(=O)(=O)Nc1ccc(F)c(C(=O)c2n[nH]c3ncc(-c4ccccc4F)cc23)c1F`, the results for the Selectivity ratio in the experiment filed under Homo sapiens [1], in the experiment filed under Homo sapiens [2] and in the experiment filed under Homo sapiens [3] were above 30, above 30 and 10, respectively.

For the molecule `CCCS(=O)(=O)Nc1ccc(F)c(C(=O)c2n[nH]c3ncc(-c4ccc(F)cc4)cc23)c1F`, the Selectivity ratio is above 30 in the experiment listed under Homo sapiens [1], above 30 in the experiment filed under Homo sapiens [2] and 10 in the experiment filed under Homo sapiens [3].

For `CCCS(=O)(=O)Nc1ccc(F)c(C(=O)c2n[nH]c3ncc(-c4ccccc4N)cc23)c1F`, the Selectivity ratio in the experiment listed under Homo sapiens [1], in the experiment listed under Homo sapiens [2] and in the experiment filed under Homo sapiens [3] was 3 each time.

As to `CCCS(=O)(=O)Nc1ccc(F)c(C(=O)c2n[nH]c3ncc(-c4ccc(C(C)C)cc4)cc23)c1F`, the Selectivity ratio in the experiment filed under Homo sapiens [1], in the experiment listed under Homo sapiens [2] and in the experiment filed under Homo sapiens [3] was 3 each time.

For the molecule `CCCS(=O)(=O)Nc1ccc(F)c(C(=O)c2n[nH]c3ncc(-c4cccc(C)c4)cc23)c1F`, the Selectivity ratio is 3 in the experiment filed under Homo sapiens [1], 3 in the experiment listed under Homo sapiens [2] and below 3 in the experiment filed under Homo sapiens [3].

`CCCS(=O)(=O)Nc1ccc(F)c(C(=O)c2n[nH]c3ncc(-c4ccc(C(F)(F)F)cc4)cc23)c1F`: the Selectivity ratio in the experiment listed under Homo sapiens [1] is 3; in the experiment listed under Homo sapiens [2], 3; in the experiment listed under Homo sapiens [3], below 3.

Regarding `CCCS(=O)(=O)Nc1ccc(F)c(C(=O)c2n[nH]c3ncc(-c4ccc(C(=O)O)cc4)cc23)c1F`, the Selectivity ratio in the experiment filed under Homo sapiens [1] was above 30; in the experiment listed under Homo sapiens [2] it was above 30; in the experiment filed under Homo sapiens [3], 10.

Consider `CCCS(=O)(=O)Nc1ccc(F)c(C(=O)c2n[nH]c3ncc(-c4cccc([N+](=O)[O-])c4)cc23)c1F`, for which the Selectivity ratio in the experiment filed under Homo sapiens [1] is 3; in the experiment filed under Homo sapiens [2], 3; in the experiment filed under Homo sapiens [3] it was below 3.

Consider `CCCS(=O)(=O)Nc1ccc(F)c(C(=O)c2n[nH]c3ncc(-c4ccc(N(C)C)cc4)cc23)c1F`, for which the Selectivity ratio is above 30 in the experiment filed under Homo sapiens [1], above 30 in the experiment listed under Homo sapiens [2] and below 3 in the experiment filed under Homo sapiens [3].

On to `CCCS(=O)(=O)Nc1ccc(F)c(C(=O)c2n[nH]c3ncc(-c4ccc(S(N)(=O)=O)cc4)cc23)c1F`, for which the figures for the Selectivity ratio in the experiment filed under Homo sapiens [1], in the experiment listed under Homo sapiens [2] and in the experiment filed under Homo sapiens [3] were above 30, above 30 and 3, respectively.

Consider `CCCS(=O)(=O)Nc1ccc(F)c(C(=O)c2n[nH]c3ncc(-c4ccc(C(=O)NCC(O)CO)cc4)cc23)c1F` (stereo unspecified), for which the Selectivity ratio in the experiment listed under Homo sapiens [1] is above 30; in the experiment filed under Homo sapiens [2], above 30; in the experiment filed under Homo sapiens [3], below 3.

For `CCCS(=O)(=O)Nc1ccc(F)c(C(=O)c2n[nH]c3ncc(-c4ccc(Cl)c(C(F)(F)F)c4)cc23)c1F`, the Selectivity ratio was above 30 in the experiment listed under Homo sapiens [1], 3 in the experiment listed under Homo sapiens [2] and below 3 in the experiment listed under Homo sapiens [3].

`CCCS(=O)(=O)Nc1ccc(F)c(C(=O)c2n[nH]c3ncc(-c4ccc(C)c(C)c4)cc23)c1F`: the Selectivity ratio in the experiment filed under Homo sapiens [1] is 3; in the experiment filed under Homo sapiens [2] it was 3; in the experiment listed under Homo sapiens [3], below 3.

On to `CCCS(=O)(=O)Nc1ccc(F)c(C(=O)c2n[nH]c3ncc(-c4ccc(C)cc4)cc23)c1F`, for which the Selectivity ratio in the experiment filed under Homo sapiens [1] is 10; in the experiment listed under Homo sapiens [2] it was 10; in the experiment listed under Homo sapiens [3], below 3.

With `CCCS(=O)(=O)Nc1ccc(F)c(C(=O)c2n[nH]c3ncc(-c4cccc(OC)c4)cc23)c1F`, the Selectivity ratio in the experiment listed under Homo sapiens [1] was determined as 10; in the experiment filed under Homo sapiens [2], 10; in the experiment filed under Homo sapiens [3], 3.

On to `CCCS(=O)(=O)Nc1ccc(F)c(C(=O)c2n[nH]c3ncc(-c4cccc(O)c4)cc23)c1F`, for which the Selectivity ratio was 3 in the experiment listed under Homo sapiens [1], above 30 in the experiment listed under Homo sapiens [2] and 3 in the experiment listed under Homo sapiens [3].

For the molecule `CCCS(=O)(=O)Nc1ccc(F)c(C(=O)c2n[nH]c3ncc(-c4cccc(F)c4)cc23)c1F`, the Selectivity ratio was 10 in the experiment filed under Homo sapiens [1], 10 in the experiment listed under Homo sapiens [2] and below 3 in the experiment filed under Homo sapiens [3].

Turning to `CCCS(=O)(=O)Nc1ccc(F)c(C(=O)c2n[nH]c3ncc(-c4ccccc4C)cc23)c1F`, the Selectivity ratio in the experiment filed under Homo sapiens [1] was found to be 10; in the experiment listed under Homo sapiens [2], 10; in the experiment listed under Homo sapiens [3], 3.

With `O=C(c1ccc(F)c(NS(=O)(=O)Cc2ccccc2)c1F)c1n[nH]c2ncc(-c3ccncc3)cc12`, the Selectivity ratio in the experiment listed under Homo sapiens [1], in the experiment filed under Homo sapiens [2] and in the experiment listed under Homo sapiens [3] was above 30 each time.

`CCCS(=O)(=O)Nc1ccc(F)c(C(=O)c2n[nH]c3ncc(-c4cccc(C(F)(F)F)c4)cc23)c1F`: the Selectivity ratio in the experiment filed under Homo sapiens [1], in the experiment listed under Homo sapiens [2] and in the experiment listed under Homo sapiens [3] was below 3 throughout.

On to `CCCS(=O)(=O)Nc1ccc(F)c(C(=O)c2n[nH]c3ncc(-c4cccc(N)c4)cc23)c1F`, for which the results for the Selectivity ratio in the experiment filed under Homo sapiens [1], in the experiment filed under Homo sapiens [2] and in the experiment filed under Homo sapiens [3] were above 30, above 30 and below 3, respectively.

Regarding `CCCS(=O)(=O)Nc1ccc(F)c(C(=O)c2n[nH]c3ncc(-c4ccc(O)cc4)cc23)c1F`, the Selectivity ratio in the experiment filed under Homo sapiens [1] is above 30; in the experiment listed under Homo sapiens [2], above 30; in the experiment filed under Homo sapiens [3] it was 10.

Take `CCCS(=O)(=O)Nc1ccc(F)c(Cc2n[nH]c3ncc(-c4ccc(Cl)cc4)cc23)c1F`: the Selectivity ratio in the experiment listed under Homo sapiens [1], in the experiment listed under Homo sapiens [2] and in the experiment filed under Homo sapiens [3] was below 3 each time.

`CCCS(=O)(=O)Nc1ccc(F)c(C(=O)c2n[nH]c3ncc(-c4ccccc4Cl)cc23)c1F`: the figures for the Selectivity ratio in the experiment listed under Homo sapiens [1], in the experiment filed under Homo sapiens [2] and in the experiment listed under Homo sapiens [3] were 10, 10 and 3, respectively.

For `CCCS(=O)(=O)Nc1ccc(F)c(C(=O)c2n[nH]c3ncc(-c4ccccc4OC)cc23)c1F`, the Selectivity ratio in the experiment listed under Homo sapiens [1] was 10; in the experiment listed under Homo sapiens [2] it was above 30; in the experiment listed under Homo sapiens [3] it was above 30.

Regarding `CCCS(=O)(=O)Nc1ccc(F)c(C(=O)c2n[nH]c3ncc(-c4ccc([N+](=O)[O-])cc4)cc23)c1F`, the Selectivity ratio in the experiment listed under Homo sapiens [1] amounted to 10; in the experiment listed under Homo sapiens [2] it was 10; in the experiment filed under Homo sapiens [3], 3.

Turning to `CCCS(=O)(=O)Nc1ccc(F)c(C(=O)c2n[nH]c3ncc(-c4ccccc4O)cc23)c1F`, the Selectivity ratio came out at 3 in the experiment filed under Homo sapiens [1], 10 in the experiment listed under Homo sapiens [2] and 3 in the experiment listed under Homo sapiens [3].
